Data reported in patent publication US20070027218A1, “Pharmaceutical compositions comprising higher primary alcohols and ezetimibe and process of preparation thereof” (PANACEA BIOTEC LTD., priority 2004, published 2007).

Tested on: Casein-Starch-Induced Hypercholesterolemia in Rabbits
Experiment: Casein-starch-induced hypercholesterolemia in rabbits (serum lipid profile)
Type: in vivo
Conditions: for LDL-C level / serum total cholesterol level: mean ± S.E.M., in mg/dL (unit assumed)
Protocol: The observed unexpected synergistic lipid lowering effect of combination of Extract-A as described herein and ezetimibe is evidenced by the test conducted in rabbits. Rabbits of either sex were procured from Central Animal House facility; Panacea Biotec Ltd., India. Animals weighing […] at the time of testing were used throughout. All animals were dosed sequentially by the oral route with Extract-A and/or ezetimibe suspended in 0.5% of carboxymethyl cellulose (CMC). A dosing volume of 2 ml/kg was used for each sequential suspension.
The fasting serum lipid profile (TC, TGs, LDL-C, HDL-C) was estimated before initiation of the experiment. […] Hypercholesterolemia was induced by feeding rabbits with wheat casein-starch diet (g/kg) containing wheat flour 333, cellulose 300, casein 270, water 20, maize oil 10, and mineral mixture (Kroon et al., 1982) for 8 weeks. Feed consumption was restricted to 100 g/day per animal. The cholesterol level was estimated every 15 days. After 60 days animals with total cholesterol level>150 mg/dl were randomized to treatment (n=6/group). Thereafter, various doses of Extract-A and/or ezetimibe were administered for another 60 days during which animals were fed with casein-starch diet. Blood samples were collected from fasted rabbits and analyzed for any alteration in serum lipid profile after 60 days of test compound(s) administration.
All the data are expressed as mean±S.E.M. (Standard Error of Mean). Student t-test was used to compare the lipid parameters between animals fed with standard and hypercholesterolemic diet. The difference between various drug treated groups was analyzed by ANOVA followed by Dunnett's test. A value of P<0.05 was considered as statistically significant.

[1] = Extract-A 100 and 200 mg/kg p.o., ezetimibe 5 and 10 mg/kg p.o., alone or in combination, vs hypercholesterolemic control rabbits
[2] = ezetimibe 5 mg/kg p.o., day 0 (before treatment)
[3] = ezetimibe 5 mg/kg p.o., day 15 (before treatment)
[4] = ezetimibe 5 mg/kg p.o., day 30 (before treatment)
[5] = ezetimibe 5 mg/kg p.o., day 60 (start of treatment)
[6] = ezetimibe 5 mg/kg p.o., day 75 (treatment from day 60)
[7] = ezetimibe 5 mg/kg p.o., day 90 (treatment from day 60)
[8] = ezetimibe 5 mg/kg p.o., day 105 (treatment from day 60)
[9] = ezetimibe 5 mg/kg p.o., day 120 (treatment from day 60)
[10] = ezetimibe 10 mg/kg p.o., day 0 (before treatment)
[11] = ezetimibe 10 mg/kg p.o., day 15 (before treatment)
[12] = ezetimibe 10 mg/kg p.o., day 30 (before treatment)
[13] = ezetimibe 10 mg/kg p.o., day 60 (start of treatment)
[14] = ezetimibe 10 mg/kg p.o., day 75 (treatment from day 60)
[15] = ezetimibe 10 mg/kg p.o., day 90 (treatment from day 60)
[16] = ezetimibe 10 mg/kg p.o., day 105 (treatment from day 60)
[17] = ezetimibe 10 mg/kg p.o., day 120 (treatment from day 60)

O=C1[C@H](CC[C@H](O)c2ccc(F)cc2)[C@@H](c2ccc(O)cc2)N1c1ccc(F)cc1 [Ez, ezetimibe]
LDL-C levels (result in words) [1]: reversed
TC levels (result in words) [1]: reversed
LDL-C level [2]: 22.40 ± 8.81
serum total cholesterol level [2]: 52.50 ± 3.59
LDL-C level [3]: 76.13 ± 3.11
serum total cholesterol level [3]: 103.50 ± 2.23
LDL-C level [4]: 131.53 ± 6.89
serum total cholesterol level [4]: 169.83 ± 6.16
LDL-C level [5]: 174.3 ± 8.02
serum total cholesterol level [5]: 219.83 ± 7.5
LDL-C level [6]: 194.07 ± 4.29
serum total cholesterol level [6]: 236.50 ± 3.47
LDL-C level [7]: 179.47 ± 3.74
serum total cholesterol level [7]: 222.83 ± 2.77
LDL-C level [8]: 156.47 ± 12.92
serum total cholesterol level [8]: 201.00 ± 12.6
LDL-C level [9]: 129.17 ± 9.02
serum total cholesterol level [9]: 181.50 ± 8.55
LDL-C level [10]: 23.70 ± 7.98
serum total cholesterol level [10]: 46.50 ± 2.2
LDL-C level [11]: 72.70 ± 3.92
serum total cholesterol level [11]: 106.83 ± 3.38
LDL-C level [12]: 125.07 ± 10.94
serum total cholesterol level [12]: 162.50 ± 11.54
LDL-C level [13]: 197.03 ± 13.55
serum total cholesterol level [13]: 234.50 ± 14.24
LDL-C level [14]: 179.83 ± 9.83
serum total cholesterol level [14]: 220.33 ± 8.73
LDL-C level [15]: 152.80 ± 6.17
serum total cholesterol level [15]: 197.66 ± 5.42
LDL-C level [16]: 126.60 ± 6.85
serum total cholesterol level [16]: 172.16 ± 6.58
LDL-C level [17]: 124.63 ± 6.55
serum total cholesterol level [17]: 171.50 ± 4.7
